From PubChem BioAssay (NCI) come the findings set out here.

Values joined by “and” are separate entries in the source; they are usually repeats but may differ in a detail not shown here. Equal values may be shown once.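 Five concentrations, 48 hours, 96-well plates. GI50: concentration for 50% inhibition of growth. At the TGI there is no net growth.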

Among the test systems are CAKI-1 renal; NCI-H226 lung; NCI/ADR-RES ovarian; SF-268 CNS; SK-MEL-2 melanoma; SN12C renal; SW-620 colon; UACC-257 melanoma; UACC-62 melanoma; UO-31 renal.
What all share (test): inhibition of tumour cell growth, NCI panel, 48 h

`C/C(CC(O)(C(F)(F)F)C(F)(F)F)=N\NC(N)=O`: the TGI in the experiment on CAKI-1 renal, in the experiment with NCI-H226 lung, in the experiment with NCI/ADR-RES ovarian, with SF-268 CNS, in the experiment with SK-MEL-2 melanoma and with SN12C renal was more than 10 µM in each case. Moreover, the TGI in the experiment with SW-620 colon, with UACC-257 melanoma, in the experiment with UACC-62 melanoma and with UO-31 renal was more than 10 µM throughout.

For the compound `Oc1cc(Cc2ccccc2)c(Cc2ccccc2)cc1O`, the TGI with CAKI-1 renal, in the experiment on NCI-H226 lung, in the experiment with NCI/ADR-RES ovarian, with SF-268 CNS, in the experiment on SK-MEL-2 melanoma and in the experiment on SN12C renal was more than 10 µM in each case. Also, the TGI in the experiment on SW-620 colon, in the experiment with UACC-257 melanoma, in the experiment on UACC-62 melanoma and in the experiment on UO-31 renal was more than 10 µM throughout.

On to `O=C(NCC1CC1)c1ccc(-c2cccc(C(=O)NC3CC3)c2)cc1`, for which the GI50 in the experiment with CAKI-1 renal, in the experiment with NCI-H226 lung, in the experiment with NCI/ADR-RES ovarian, in the experiment with SF-268 CNS, in the experiment with SK-MEL-2 melanoma and with SN12C renal was more than 25 µM throughout. Moreover, the GI50 with SW-620 colon, with UACC-257 melanoma, with UACC-62 melanoma and with UO-31 renal was more than 25 µM in each case. In addition, the TGI with CAKI-1 renal, in the experiment with NCI-H226 lung, in the experiment on NCI/ADR-RES ovarian, in the experiment on SF-268 CNS, with SK-MEL-2 melanoma and in the experiment with SN12C renal was more than 25 µM each time. Besides, the TGI in the experiment on SW-620 colon, in the experiment on UACC-257 melanoma, with UACC-62 melanoma and in the experiment with UO-31 renal was more than 25 µM throughout.

In the case of `CC12CCC(CC(=O)/C1=C(/Br)I)C2(C)C` (stereo not given), the TGI worked out at 31.2 µM with CAKI-1 renal; 29.9 µM in the experiment on NCI-H226 lung; 29.8 µM in the experiment on NCI/ADR-RES ovarian; 28.9 µM in the experiment on SF-268 CNS; 30.3 µM in the experiment with SK-MEL-2 melanoma; 29.6 µM in the experiment on SN12C renal. Moreover, the TGI with SW-620 colon amounted to 34.4 µM; with UACC-257 melanoma, 29.8 µM; with UACC-62 melanoma, 30.4 µM; in the experiment with UO-31 renal, 32.1 µM.

For `COc1ccc(C2=Nn3c(nnc3-c3cc(Cl)cc(Cl)c3Cl)SC2)cc1`, the GI50 was 0.562 µM with CAKI-1 renal; 0.778 µM in the experiment on NCI-H226 lung; 0.248 µM with NCI/ADR-RES ovarian; 1.3 µM with SF-268 CNS; 1.21 µM in the experiment on SK-MEL-2 melanoma; 1.54 µM in the experiment with SN12C renal. In addition, the GI50 is 0.381 µM in the experiment with SW-620 colon, 0.362 µM in the experiment with UACC-257 melanoma, 0.436 µM in the experiment with UACC-62 melanoma and 0.379 µM in the experiment on UO-31 renal. Moreover, the TGI is more than 49.7 µM in the experiment with CAKI-1 renal; more than 100 µM in the experiment with NCI-H226 lung; 1.26 µM in the experiment with NCI/ADR-RES ovarian; more than 100 µM in the experiment on SF-268 CNS; more than 55.7 µM in the experiment with SK-MEL-2 melanoma; more than 100 µM with SN12C renal. Further, the TGI in the experiment with SW-620 colon is more than 100 µM; in the experiment on UACC-257 melanoma, more than 95.3 µM; in the experiment with UACC-62 melanoma, more than 100 µM; in the experiment with UO-31 renal, 29.2 µM.

Consider `O=C(O)c1nc(NCc2nc3cc(Cl)ccc3o2)n[nH]1`, for which the GI50 with CAKI-1 renal, with NCI-H226 lung, with NCI/ADR-RES ovarian, in the experiment on SF-268 CNS, with SK-MEL-2 melanoma and in the experiment on SN12C renal was more than 100 µM throughout. The GI50 in the experiment on SW-620 colon, with UACC-257 melanoma, in the experiment on UACC-62 melanoma and in the experiment with UO-31 renal was more than 100 µM in each case. Further, the TGI in the experiment with CAKI-1 renal, with NCI-H226 lung, in the experiment with NCI/ADR-RES ovarian, with SF-268 CNS, in the experiment on SK-MEL-2 melanoma and with SN12C renal was more than 100 µM in each case. Further, the TGI with SW-620 colon, with UACC-257 melanoma, with UACC-62 melanoma and in the experiment on UO-31 renal was more than 100 µM each time.

Take `O=C(Nc1cccc(Cl)c1)Nn1cnnc1`: the GI50 in the experiment on CAKI-1 renal, in the experiment with NCI-H226 lung, in the experiment on NCI/ADR-RES ovarian, with SF-268 CNS, with SK-MEL-2 melanoma and in the experiment with SN12C renal was more than 50 µM in each case. For the same compound, the GI50 with SW-620 colon, in the experiment with UACC-257 melanoma, in the experiment with UACC-62 melanoma and in the experiment on UO-31 renal was more than 50 µM in each case. Also, the TGI in the experiment on CAKI-1 renal, in the experiment with NCI-H226 lung, in the experiment on NCI/ADR-RES ovarian, with SF-268 CNS, with SK-MEL-2 melanoma and in the experiment with SN12C renal was more than 100 µM each time. For the same compound, the TGI with SW-620 colon, in the experiment on UACC-257 melanoma, in the experiment on UACC-62 melanoma and in the experiment on UO-31 renal was more than 100 µM in each case.

Consider `Cc1ccc(S(=O)(=O)SC/C=C\CSS(=O)(=O)c2ccc(C)cc2)cc1`, for which the TGI is 88.9 µM and 45.7 µM in the experiment with CAKI-1 renal; 71.5 µM and 55.2 µM with NCI-H226 lung; more than 100 µM in the experiment on NCI/ADR-RES ovarian; > 73.2 µM and 74.4 µM with SF-268 CNS; more than 92.6 µM in the experiment with SK-MEL-2 melanoma; 88.5 µM and 37.1 µM in the experiment with SN12C renal. In addition, the TGI with SW-620 colon is 74.2 µM and 29.8 µM; in the experiment with UACC-257 melanoma, > 56.2 µM and 45.1 µM; in the experiment on UACC-62 melanoma, > 79.9 µM and 45.5 µM; in the experiment with UO-31 renal, more than 100 µM. In addition, the GI50 in the experiment with UACC-257 melanoma is 42.3 µM and 20.8 µM.

As for `CCN1C(=O)N(CC)C2C1NN=c1s/c(=C\c3ccc(Cl)cc3Cl)c(=O)n12` (stereo not given), the GI50 in the experiment with CAKI-1 renal is 0.0396 µM; in the experiment on NCI-H226 lung it was 0.129 µM; with NCI/ADR-RES ovarian, 0.0301 µM; with SF-268 CNS it was 0.0485 µM; in the experiment with SK-MEL-2 melanoma, 0.0592 µM; with SN12C renal it was 0.0482 µM. In addition, the GI50 with SW-620 colon was 0.0439 µM; in the experiment with UACC-257 melanoma, 1.05 µM; in the experiment on UACC-62 melanoma it was 0.064 µM; with UO-31 renal, 0.167 µM. For the same compound, the TGI in the experiment with CAKI-1 renal is 25.7 µM; in the experiment with NCI/ADR-RES ovarian, more than 32 µM; with SF-268 CNS, more than 67.5 µM; with SK-MEL-2 melanoma it was more than 60 µM; in the experiment with SN12C renal it was more than 53.4 µM; in the experiment with SW-620 colon, more than 100 µM. For the same compound, the TGI in the experiment on UACC-257 melanoma was more than 88.4 µM; in the experiment on UACC-62 melanoma, more than 51.5 µM; in the experiment with UO-31 renal, 60.4 µM.
